Laboratory results taken from patent US11103510B2, “JAK1 pathway inhibitors for the treatment of cytokine-related disorders” (Incyte Corporation, priority 2018, dated 2021).

Tests used:
[1] = biological target: human JAK1 (a.a. 837-1142) (Homo sapiens, UniProt P23458); test: In vitro JAK kinase assay (HTRF), JAK1; type: biochemical; details: 1 mM ATP
Description: (§1) The catalytic activity of JAK1, JAK2 or JAK3 was assayed by measuring the phosphorylation of a biotinylated peptide. The phosphorylated peptide was detected by homogenous time resolved fluorescence (HTRF). […] Reactions are carried out at room temperature for 1 hour and then stopped with 20 μL 45 mM EDTA, 300 nM SA-APC, 6 nM Eu-Py20 in assay buffer (Perkin Elmer, Boston, Mass.). Binding to the Europium labeled antibody takes place for 40 minutes and HTRF signal was measured on a Fusion plate reader (Perkin Elmer, Boston, Mass.).

[2] = biological target: human JAK2 (a.a. 828-1132) (Homo sapiens (Human), UniProt O60674); test: In vitro JAK kinase assay (HTRF), JAK2, for JAK2/JAK1 ratio; type: biochemical; details: IC50 ratio, 1 mM ATP
human JAK2 (a.a. 828-1132), sequence (O60674 828-1132): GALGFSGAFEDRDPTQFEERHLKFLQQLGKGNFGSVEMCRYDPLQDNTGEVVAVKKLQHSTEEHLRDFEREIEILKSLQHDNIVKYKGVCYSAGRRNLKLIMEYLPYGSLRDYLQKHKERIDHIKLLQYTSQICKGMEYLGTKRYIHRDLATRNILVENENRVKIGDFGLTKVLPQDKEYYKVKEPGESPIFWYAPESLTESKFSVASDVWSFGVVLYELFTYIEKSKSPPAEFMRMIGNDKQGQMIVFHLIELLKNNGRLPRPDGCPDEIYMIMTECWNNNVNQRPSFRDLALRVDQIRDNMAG
Description: as §1

| Structure (SMILES) | IC50 [1] | JAK2/JAK1 [2] |
| --- | --- | --- |
| N#CC[C@]1(n2cc(-c3ncnc4[nH]ccc34)cn2)C[C@H](N2CCC(Oc3cc(CN4CCC[C@H]4CO)cc(C(F)(F)F)n3)CC2)C1 [Compound 12, {trans-3-(4-{[4-{[(2S)-2-(hydroxymethyl)pyrrolidin-1-yl]methyl}-6-(trifluoromethyl)pyridin-2-yl]oxy}piperidin-1-yl)-1-[4-(7H-pyrrolo[2,3-d]pyrimidin-4-yl)-1H-pyrazol-1-yl]cyclobutyl}acetonitrile] | < 10 nM | >10 |
| N#CC[C@]1(n2cc(-c3ncnc4[nH]ccc34)cn2)C[C@H](N2CCC(Oc3cc(CCO)cc(C(F)(F)F)n3)CC2)C1 [Compound 26, {trans-3-(4-{[4-(2-hydroxyethyl)-6-(trifluoromethyl)pyridin-2-yl]oxy}piperidin-1-yl)-1-[4-(7H-pyrrolo[2,3-d]pyrimidin-4-yl)-1H-pyrazol-1-yl]cyclobutyl}acetonitrile] | < 10 nM | >10 |
| N#CCC(CN1CCN(C(=O)c2ccc(C#N)cc2F)CC1)n1ccc(-c2ncnc3[nH]ccc23)c1 (stereo not drawn) [Compound 9, 4-[(4-{3-cyano-2-[3-(7H-pyrrolo[2,3-d]pyrimidin-4-yl)-1H-pyrrol-1-yl]propyl}piperazin-1-yl)carbonyl]-3-fluorobenzonitrile] | < 10 nM | >10 |
| C[C@@H](O)c1nc2cnc3ccsc3c2n1[C@H]1CC[C@H](CC#N)OC1 [Compound 5, ((2R,5S)-5-{2-[(1R)-1-hydroxyethyl]-1H-imidazo[4,5-d]thieno[3,2-b]pyridin-1-yl}tetrahydro-2H-pyran-2-yl)acetonitrile] | < 100 nM | >10 |
| C[C@H](NC(=O)c1cc(F)c(N2CC(CC#N)(n3cc(-c4ncnc5[nH]ccc45)cn3)C2)cc1F)C(F)(F)F [Compound 16, 4-{3-(cyanomethyl)-3-[4-(7H-pyrrolo[2,3-d]pyrimidin-4-yl)-1H-pyrazol-1-yl]azetidin-1-yl}-2,5-difluoro-N-[(1S)-2,2,2-trifluoro-1-methylethyl]benzamide] | < 10 nM | >10 |
| C[C@H](O)CNCc1cc(OC2CCN([C@H]3C[C@](CC#N)(n4cc(-c5ncnc6[nH]ccc56)cn4)C3)CC2)nc(C(F)(F)F)c1 [Compound 25, {trans-3-(4-{[4-({[(2S)-2-hydroxypropyl]amino}methyl)-6-(trifluoromethyl)pyridin-2-yl]oxy}piperidin-1-yl)-1-[4-(7H-pyrrolo[2,3-d]pyrimidin-4-yl)-1H-pyrazol-1-yl]cyclobutyl}acetonitrile] | < 10 nM | >10 |
| C[C@@H](CO)NCc1cc(OC2CCN([C@H]3C[C@](CC#N)(n4cc(-c5ncnc6[nH]ccc56)cn4)C3)CC2)nc(C(F)(F)F)c1 [Compound 23, {trans-3-(4-{[4-({[(1S)-2-hydroxy-1-methylethyl]amino}methyl)-6-(trifluoromethyl)pyridin-2-yl]oxy}piperidin-1-yl)-1-[4-(7H-pyrrolo[2,3-d]pyrimidin-4-yl)-1H-pyrazol-1-yl]cyclobutyl}acetonitrile] | < 10 nM | >10 |
| N#CC[C@]1(n2cc(-c3ncnc4[nH]ccc34)cn2)C[C@H](N2CCC(Oc3cc(CN4CC(O)C4)cc(C(F)(F)F)n3)CC2)C1 [Compound 11, {trans-3-(4-{[4-[(3-hydroxyazetidin-1-yl)methyl]-6-(trifluoromethyl)pyridin-2-yl]oxy}piperidin-1-yl)-1-[4-(7H-pyrrolo[2,3-d]pyrimidin-4-yl)-1H-pyrazol-1-yl]cyclobutyl}acetonitrile] | < 10 nM | >10 |
| N#CCC(C1CCN(c2nc3cccnc3o2)C1)n1cc(-c2ncnc3[nH]ccc23)cn1 (stereo not drawn) [Compound 7, 3-(1-[1,3]oxazolo[5,4-b]pyridin-2-ylpyrrolidin-3-yl)-3-[4-(7H-pyrrolo[2,3-d]pyrimidin-4-yl)-1H-pyrazol-1-yl]propanenitrile] | < 10 nM | >10 |
| N#CCC(C1CCN(c2cccc(Cl)n2)C1)n1cc(-c2ncnc3[nH]ccc23)cn1 (single isomer, unassigned) [Compound 6, 3-[1-(6-chloropyridin-2-yl)pyrrolidin-3-yl]-3-[4-(7H-pyrrolo[2,3-d]pyrimidin-4-yl)-1H-pyrazol-1-yl]propanenitrile] | < 10 nM | >10 |
| N#CC[C@]1(n2cc(-c3ncnc4[nH]ccc34)cn2)C[C@H](N2CCC(Oc3cc(CN4CCC[C@@H]4CO)cc(C(F)(F)F)n3)CC2)C1 [Compound 13, {trans-3-(4-{[4-{[(2R)-2-(hydroxymethyl)pyrrolidin-1-yl]methyl}-6-(trifluoromethyl)pyridin-2-yl]oxy}piperidin-1-yl)-1-[4-(7H-pyrrolo[2,3-d]pyrimidin-4-yl)-1H-pyrazol-1-yl]cyclobutyl}acetonitrile] | < 10 nM | >10 |
| N#CCC(CN1CCN(C(=O)c2ccc(C#N)cc2F)CC1)n1cc(-c2ncnc3[nH]ccc23)cn1 (stereo not drawn) [Compound 8, 4-[(4-{3-cyano-2-[4-(7H-pyrrolo[2,3-d]pyrimidin-4-yl)-1H-pyrazol-1-yl]propyl}piperazin-1-yl)carbonyl]-3-fluorobenzonitrile] | < 10 nM | >10 |

Results, then the compound that gave them:

| IC50 [1] | JAK2/JAK1 [2] | Structure (SMILES) |
| --- | --- | --- |
| < 10 nM | >10 | N#CCC1(n2cc(-c3ncnc4[nH]ccc34)cn2)CN([C@H]2CC[C@@H](Oc3cc(CN4CC[C@@H](O)C4)cc(C(F)(F)F)n3)CC2)C1 [Compound 21, {1-(cis-4-{[4-{[(3R)-3-hydroxypyrrolidin-1-yl]methyl}-6-(trifluoromethyl)pyridin-2-yl]oxy}cyclohexyl)-3-[4-(7H-pyrrolo[2,3-d]pyrimidin-4-yl)-1H-pyrazol-1-yl]azetidin-3-yl}acetonitrile] |
| < 10 nM | >10 | N#CCC1(n2cc(-c3ncnc4[nH]ccc34)cn2)CN(C2CCN(C(=O)c3ccnc(C(F)(F)F)n3)CC2)C1 [Compound 3, [3-[4-(7H-pyrrolo[2,3-d]pyrimidin-4-yl)-1H-pyrazol-1-yl]-1-(1-{[2-(trifluoromethyl)pyrimidin-4-yl]carbonyl}piperidin-4-yl)azetidin-3-yl]acetonitrile] |
| < 10 nM | >10 | N#CC[C@]1(n2cc(-c3ncnc4[nH]ccc34)cn2)C[C@H](N2CCN(C(=O)c3ccnc(C(F)(F)F)n3)CC2)C1 [Compound 10, [trans-1-[4-(7H-pyrrolo[2,3-d]pyrimidin-4-yl)-1H-pyrazol-1-yl]-3-(4-{[2-(trifluoromethyl)pyrimidin-4-yl]carbonyl}piperazin-1-yl)cyclobutyl]acetonitrile] |
| < 10 nM | >10 | CC(C)(O)c1cc(O[C@H]2CC[C@@H](N3CC(CC#N)(n4cc(-c5ncnc6[nH]ccc56)cn4)C3)CC2)nc(C(F)(F)F)c1 [Compound 20, {1-(cis-4-{[4-(1-hydroxy-1-methylethyl)-6-(trifluoromethyl)pyridin-2-yl]oxy}cyclohexyl)-3-[4-(7H-pyrrolo[2,3-d]pyrimidin-4-yl)-1H-pyrazol-1-yl]azetidin-3-yl}acetonitrile] |
| < 10 nM | >10 | N#CCC1(n2cc(-c3ncnc4[nH]ccc34)cn2)CN([C@H]2CC[C@@H](Oc3cc(CCO)nc(C(F)(F)F)n3)CC2)C1 [Compound 18, {1-(cis-4-{[6-(2-hydroxyethyl)-2-(trifluoromethyl)pyrimidin-4-yl]oxy}cyclohexyl)-3-[4-(7H-pyrrolo[2,3-d]pyrimidin-4-yl)-1H-pyrazol-1-yl]azetidin-3-yl}acetonitrile] |
| < 10 nM | >10 | CCNCc1cc(O[C@H]2CC[C@@H](N3CC(CC#N)(n4cc(-c5ncnc6[nH]ccc56)cn4)C3)CC2)nc(C(F)(F)F)c1 [Compound 19, {1-(cis-4-{[4-[(ethylamino)methyl]-6-(trifluoromethyl)pyridin-2-yl]oxy}cyclohexyl)-3-[4-(7H-pyrrolo[2,3-d]pyrimidin-4-yl)-1H-pyrazol-1-yl]azetidin-3-yl}acetonitrile] |
| < 10 nM | >10 | C[C@@H](O)CNCc1cc(OC2CCN([C@H]3C[C@](CC#N)(n4cc(-c5ncnc6[nH]ccc56)cn4)C3)CC2)nc(C(F)(F)F)c1 [Compound 24, {trans-3-(4-{[4-({[(2R)-2-hydroxypropyl]amino}methyl)-6-(trifluoromethyl)pyridin-2-yl]oxy}piperidin-1-yl)-1-[4-(7H-pyrrolo[2,3-d]pyrimidin-4-yl)-1H-pyrazol-1-yl]cyclobutyl}acetonitrile] |
| < 10 nM | >10 | N#CCC1(n2cc(-c3ncnc4[nH]ccc34)cn2)CN([C@H]2CC[C@@H](Oc3cc(CN4CC[C@H](O)C4)cc(C(F)(F)F)n3)CC2)C1 [Compound 22, {1-(cis-4-{[4-{[(3S)-3-hydroxypyrrolidin-1-yl]methyl}-6-(trifluoromethyl)pyridin-2-yl]oxy}cyclohexyl)-3-[4-(7H-pyrrolo[2,3-d]pyrimidin-4-yl)-1H-pyrazol-1-yl]azetidin-3-yl}acetonitrile] |
| < 10 nM | >10 | N#CCC1(n2cc(-c3ncnc4[nH]ccc34)cn2)CN(C2CCN(C(=O)Nc3ccc(F)cc3C(F)(F)F)CC2)C1 [Compound 2, 4-{3-(Cyanomethyl)-3-[4-(7H-pyrrolo[2,3-d]pyrimidin-4-yl)-1H-pyrazol-1-yl]azetidin-1-yl}-N-[4-fluoro-2-(trifluoromethyl)phenyl]piperidine-1-carboxamide] |
